One data set has as its system Trx in MDA-MB-231 cells. The data set is described as follows: Intracellular Trx levels by ELISA in MDA-MB-231 tumor cells. Conditions: for intracellular Trx during treatment: 0.1 μM, 1 μM and 10 μM, over 96 hours; for total intracellular Trx at end of experiment versus untreated cell cultures: end of experiment (96 hours). It counts as cell-based, human. The protocol:
The human mammary carcinoma cell line MDA-MB-231 was obtained from the American Type Culture Collection (ATCC; Manassas, Va.) and cultured in Leibovitz's L-15 medium (Thermo Fisher Scientific, USA) supplemented with 10% (v/v) heat-inactivated fetal bovine serum (Thermo Fisher Scientific, USA), 10 mM HERBS (Sigma), 25 mM sodium bicarbonate (Sigma), 1× Glutamax (Sigma), 100 IU/mL penicillin and 100 μg/ml streptomycin (Sigma) in a 5% CO2 atmosphere at 37° C. Briefly, cells were seeded at 7500 cells/well in 96-well plates. After 24 h, the cells were treated either with different concentrations of test compounds or DMSO (0.5%; vehicle control) respectively and further incubated at 37° C. in a CO2 incubator. Culture supernatants were collected at different time points, like, immediately after cell plating (−24 h), 0 h (at the time of compound addition), and 1 h, 6 h, 12 h, 24 h, 48 h, 72 h and 96 h following compound addition. Subsequently, cells were lysed from corresponding wells with 0.1% Triton X-100 and the lysates were collected. Trx levels were measured in both the culture supernatants and cell lysates by ELISA using TXN (Human) ELISA Kit [Abnova; Cat no: KA0535] following manufacturer instruction. A standard curve was prepared using different concentrations of the Trx standard (provided in the kit) with the help of GraphPad Prism software (version 5.0; La Jolla, Calif., USA). Trx concentrations for the unknown samples were calculated from the standard curve. The data were expressed as the means of three replicates.
Background: ELISA stands for enzyme-linked immunosorbent assay.

The test system of data set [1] is MDA-MB-231 (a breast cancer cell line). The data set is described as follows: MTT cell viability assay, MDA-MB-231. The data set is classed as cell-based, human. As to the method:
MDA-MB-453 (ATCC HTB-131) cells were grown in media with sodium pyruvate. MDA-MB-231 cells (ATCC HTB-26) were grown in DMEM media or L-15 supplemented with Glutamax (1×). U87-MG (ATCC HTB-14) and MDA-MB-468 (ATCC HTB-132) cells were cultured in DMEM supplemented with Glutamax (1×). NB-4 (DSMZ ACC-207) cells were cultured in RPMI 1640.
Breast cancer and glioblastoma cell lines were plated 4000 cells/well in 96-well plates in the presence of 10% FBS media. The following day cells were treated with various concentrations of the example compounds (0.1% DMSO final) and incubated for 72 hrs. After the incubation an MTT assay was performed to access cell viability. Percent of viability was determined using DMSO vehicle and no cell (blank) controls.
A general note: Formazan colour is commonly taken as a measure of viable cells.

The target in the next data set is T1, recombinant TrxR (Rattus norvegicus, UniProt O89049).
T1 sequence (O89049 1-499): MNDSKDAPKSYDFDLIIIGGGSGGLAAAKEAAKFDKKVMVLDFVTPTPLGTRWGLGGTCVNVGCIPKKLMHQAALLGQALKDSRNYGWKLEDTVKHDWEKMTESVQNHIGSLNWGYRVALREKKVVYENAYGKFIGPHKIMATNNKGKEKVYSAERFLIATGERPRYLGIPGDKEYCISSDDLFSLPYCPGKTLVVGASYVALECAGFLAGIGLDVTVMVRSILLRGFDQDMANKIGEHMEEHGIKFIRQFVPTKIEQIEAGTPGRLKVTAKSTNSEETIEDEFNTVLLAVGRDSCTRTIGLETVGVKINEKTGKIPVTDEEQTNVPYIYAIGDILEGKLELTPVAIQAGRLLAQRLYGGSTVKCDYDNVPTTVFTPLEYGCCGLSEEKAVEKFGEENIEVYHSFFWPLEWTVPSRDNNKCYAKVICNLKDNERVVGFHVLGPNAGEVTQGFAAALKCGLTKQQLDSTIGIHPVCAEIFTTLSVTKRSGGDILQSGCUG
The data set is described as follows: Sec-independent SecTRAP activity (Juglone assay). Conditions: for Juglone Act (% @ 100% DTNB inhibition): compound at the concentration that achieves 100% inhibition of TrxR in the DTNB assay.

One may read the IC50 as the concentration that inhibits the measured activity by half. Lower therefore signals inhibition by little substance.

Method for recombinant TrxR: SecTRAP forming capabilities of compounds with TrxR was determined using the Juglone Assay. Compounds were incubated in the presence of recombinant TrxR and 250 μM NADPH for 15 minutes at concentrations fully inhibiting enzyme activity in the DTNB assay. 100 μM juglone was then added to each well and NADPH consumption was followed at OD340 to determine sustained reductive capacity at the N-terminus of TrxR (SecTRAP Activity). Activity was determined following the consumption of NADPH over time and normalized to DMSO only (Vehicle) and TrxR lacking (blank) controls.
Aliquots were used in a DTNB assay to determine inhibition of enzyme activity. […] Incubation samples were then added to a reaction buffer containing 250 μM NADPH and 100 μM juglone, whereupon NADPH consumption was followed at OD340 to determine sustained SecTRAP activity.
Higher % values for juglone activity (juglone reduction activity) in this assay are indicative of stronger prooxidant activity.

On to `NC(=O)c1ccc(I)c([N+](=O)[O-])c1` [Iniparib, 4-Iodo-3-nitrobenzamide, reference compound], for which the “intracellular Trx levels in comparison to untreated cells” value with Trx in MDA-MB-231 cells (e.g. at the 96 h time point) was “reduced”. Moreover, the IC50 in data set [1] (Homo sapiens, MDA-MB-231, 72 h) is above 33 µM. Besides, on recombinant TrxR (DTNB assay inhibited, juglone activity retained), the “classification as SecTRAP forming agent” value is recorded as “SecTRAP forming compound”. Moreover, the “N-terminal juglone reduction activity” value at recombinant TrxR (Iniparib at 1 mM compared with OT-1000 at 1 μM (FIG. 1B)) is “retained at a similar level to that obtained for OT-1000”.
With `COc1ccc([N+](=O)[O-])c(S(=O)(=O)c2ccc(Cl)cc2)n1` [OT-1000, 2-((4-Chlorophenyl)sulfonyl)-6-methoxy-3-nitropyridine], in the data set on Trx in MDA-MB-231 cells, the “intracellular Trx during treatment” value was “appears to decline” and the “total intracellular Trx at end of experiment versus untreated cell cultures” value is “lower”. Moreover, the IC50 in data set [1] (Homo sapiens, MDA-MB-231, 72 h) was determined as 3.14 µM.
Consider `CCCCCCCCS(=O)(=O)c1nc(OC)ccc1[N+](=O)[O-]` [OT-1096, 6-methoxy-3-nitro-2-(octylsulfonyl)pyridine], for which, in the data set on Trx in MDA-MB-231 cells (at 10 μM), the “intracellular levels of Trx compared with control cells” value was “reduced” and the “time after which intracellular Trx is reduced compared with control cells” value was found to be 24 h. At recombinant TrxR, the “Juglone Act (% @ 100% DTNB inhibition)” value was 86.96%.
Consider `CCS(=O)(=O)c1nc(OC)ccc1[N+](=O)[O-]` [OT-1129, 2-(ethylsulfonyl)-6-methoxy-3-nitropyridine], for which, in the data set on Trx in MDA-MB-231 cells, the “intracellular Trx during treatment” value is listed as “appears to decline” and the “total intracellular Trx at end of experiment versus untreated cell cultures” value was “lower”. In data set [1] (72 hrs), this compound returned an IC50 of 4.88 µM. Besides, at recombinant TrxR, the “Juglone Act (% @ 100% DTNB inhibition)” value turned out to be 74.83%.
